Measured values: PMC10140581, “Development and evaluation of novel artemisinin-isatin hybrids with potential anti-leukemic cytotoxicity” (Frontiers in Oncology, 2023)

Tests used:
[1] = test system: CCRF-CEM human acute lymphoblastic leukemia cell line; assay: MTT antiproliferative assay, CCRF-CEM; assay type: cell-based
Procedure: (§1) The antiproliferative activity and cytotoxicity of ester tethered ART-isatin hybrids 7a-u against human myeloid leukemia cell lines (K562 CM-0130 purchased from Procell and K562/ADR AW-CELLS-H0187 purchased from AnWei-sci), human acute lymphoblastic leukemia cell line (CCRF-CEM CL-0058 purchased from Procell) as well as cytotoxicity towards normal human peripheral blood mononuclear cells (PBMCs 230470, purchased from Mingzhoubio) were assessed by 3-(4,5-dimethylthiazol-2-yl)-2,5-diphenyltetrazolium bromide (MTT) assay.
(§2) Medium in wells was replaced after 24 h with fresh medium containing the tested compounds in DMSO (1% v/v) and incubated for 72 h. […] 3-(4,5-dimethyl-2-thiazolyl)-2,5-diphenyltetrazolium bromide (MTT) solution (10 µL) was added to each well, and the cultures were incubated for an additional 4 h at 37°C. A further 100 µL of […] was added and incubation continued overnight at 37°C. The absorbance at 540 nm was determined in each well with a 96-well plate reader. The growth of the treated cells was compared with that of untreated cells. Half maximum inhibitory concentration (IC50) is a measurement of the efficacy of a substance in inhibiting a specific biological or biochemical process. […] In this experiment, the dose-response curve constructed by Spss22.0 software was used to calculate the inhibitory effect of the hybrid (0 μM-100 μM) on the activity of leukemia cell lines. Each experiment was performed independently in triplicate with three tests in each, and results were reported as mean inhibitory concentration IC50.

[2] = test system: K562 human myeloid leukemia cell line; assay: MTT antiproliferative assay, K562; assay type: cell-based
Procedure: as §1, §2

[3] = test system: K562/ADR human myeloid leukemia cell line; assay: MTT antiproliferative assay, K562/ADR; assay type: cell-based
Procedure: as §1, with “assay. The antiproliferative activity was expressed by half maximal inhibitory concentration (IC50) values, which were presented in Table 2 .” for “assay.”
as §2

[4] = MTT cytotoxicity assay, normal PBMCs; assay type: cell-based, human; details: normal peripheral blood mononuclear cells (PBMCs); MTT assay, normal human PBMCs
Procedure: as §1

[5] = test system: normal human peripheral blood mononuclear cells (PBMCs); assay: MTT cytotoxicity assay, normal PBMCs; assay type: cell-based; details: PBMCs vs CCRF-CEM
Procedure: as §1

Row | Structure (SMILES) | IC50 [1] | IC50 [2] | IC50 [3] | IC50 [4] | SI, Selectivity index, IC50(PBMCs)/IC50(CCRF-CEM) [5]
1 | COc1cccc2c1C(=O)c1c(O)c3c(c(O)c1C2=O)C[C@@](O)(C(=O)CO)C[C@@H]3O[C@H]1C[C@H](N)[C@H](O)[C@H](C)O1 [Adriamycin, reference compound] | 0.01 µM | 4.89 µM | > 100 µM | 46.9 µM | 4690
2 | O=C(CCCCCCC(=O)Nc1ccccc1)NO [Vorinostat, reference compound] | – | – | 2.18 µM | – | –
3 | CON=C1C(=O)N(CC(=O)OC2O[C@@H]3O[C@@]4(C)CC[C@H]5[C@H](C)CC[C@@H]([C@H]2C)[C@@]35OO4)c2ccccc21 (stereo partly drawn) [hybrid 7a, (3R,5aS,6R,8aS,9R,12R,12aR)-3,6,9-trimethyldecahydro-12H-3,12-epoxy[1,2]dioxepino[4,3-i]isochromen-10-yl 2-(3-(methoxyimino)-2-oxoindolin-1-yl)acetate] | 3.83 µM | 33.6 µM | 49.8 µM | > 100 µM | >26.10
4 | C[C@@H]1CC[C@H]2[C@@H](C)C(OC(=O)CN3C(=O)C(=NOCc4ccccc4)c4ccccc43)O[C@@H]3O[C@@]4(C)CC[C@@H]1[C@]32OO4 (stereo partly drawn) [hybrid 7b, (3R,5aS,6R,8aS,9R,12R,12aR)-3,6,9-trimethyldecahydro-12H-3,12-epoxy[1,2]dioxepino[4,3-i]isochromen-10-yl 2-(3-[(benzyloxy)imino)-2-oxoindolin-1-yl]acetate] | > 100 µM | > 100 µM | > 100 µM | – | –
5 | CON=C1C(=O)N(CC(=O)OC2O[C@@H]3O[C@@]4(C)CC[C@H]5[C@H](C)CC[C@@H]([C@H]2C)[C@@]35OO4)c2ccc(F)cc21 (stereo partly drawn) [hybrid 7c, (3R,5aS,6R,8aS,9R,12R,12aR)-3,6,9-trimethyldecahydro-12H-3,12-epoxy[1,2]dioxepino[4,3-i]isochromen-10-yl 2-(5-fluoro-3-(methoxyimino)-2-oxoindolin-1-yl)acetate] | 29.4 µM | > 100 µM | > 100 µM | > 100 µM | –
6 | C[C@@H]1CC[C@H]2[C@@H](C)C(OC(=O)CCN3C(=O)C(=NOCc4ccccc4)c4ccccc43)O[C@@H]3O[C@@]4(C)CC[C@@H]1[C@]32OO4 (stereo partly drawn) [hybrid 7g, (3R,5aS,6R,8aS,9R,12R,12aR)-3,6,9-trimethyldecahydro-12H-3,12-epoxy[1,2]dioxepino[4,3-i]isochromen-10-yl 3-(3-[(benzyloxy)imino)-2-oxoindolin-1-yl]propanoate] | > 100 µM | > 100 µM | > 100 µM | – | –
7 | CCON=C1C(=O)N(CCC(=O)OC2O[C@@H]3O[C@@]4(C)CC[C@H]5[C@H](C)CC[C@@H]([C@H]2C)[C@@]35OO4)c2ccc(F)cc21 (stereo partly drawn) [hybrid 7i, (3R,5aS,6R,8aS,9R,12R,12aR)-3,6,9-trimethyldecahydro-12H-3,12-epoxy[1,2]dioxepino[4,3-i]isochromen-10-yl 3-(3-(ethoxyimino)-5-fluoro-2-oxoindolin-1-yl)propanoate] | > 100 µM | 15.9 µM | > 100 µM | – | –
8 | CON=C1C(=O)N(CCC(=O)OC2O[C@@H]3O[C@@]4(C)CC[C@H]5[C@H](C)CC[C@@H]([C@H]2C)[C@@]35OO4)c2ccc(OC)cc21 (stereo partly drawn) [hybrid 7k, (3R,5aS,6R,8aS,9R,12R,12aR)-3,6,9-trimethyldecahydro-12H-3,12-epoxy[1,2]dioxepino[4,3-i]isochromen-10-yl 3-(5-methoxy-3-(methoxyimino)-2-oxoindolin-1-yl)propanoate] | 6.74 µM | > 100 µM | > 100 µM | > 100 µM | >14.83
9 | CCON=C1C(=O)N(CCC(=O)OC2O[C@@H]3O[C@@]4(C)CC[C@H]5[C@H](C)CC[C@@H]([C@H]2C)[C@@]35OO4)c2ccc(OC)cc21 (stereo partly drawn) [hybrid 7l, (3R,5aS,6R,8aS,9R,12R,12aR)-3,6,9-trimethyldecahydro-12H-3,12-epoxy[1,2]dioxepino[4,3-i]isochromen-10-yl 3-(5-methoxy-3-(ethoxyimino)-2-oxoindolin-1-yl)propanoate] | 19.4 µM | > 100 µM | > 100 µM | > 100 µM | >5.16
10 | CON=C1C(=O)N(CCCC(=O)OC2O[C@@H]3O[C@@]4(C)CC[C@H]5[C@H](C)CC[C@@H]([C@H]2C)[C@@]35OO4)c2ccccc21 (stereo partly drawn) [hybrid 7m, (3R,5aS,6R,8aS,9R,12R,12aR)-3,6,9-trimethyldecahydro-12H-3,12-epoxy[1,2]dioxepino[4,3-i]isochromen-10-yl 4-(3-(methoxyimino)-2-oxoindolin-1-yl)butanoate] | 2.78 µM | > 100 µM | > 100 µM | > 100 µM | >35.97
11 | C[C@@H]1CC[C@H]2[C@@H](C)C(OC(=O)CCCN3C(=O)C(=NOCc4ccccc4)c4ccccc43)O[C@@H]3O[C@@]4(C)CC[C@@H]1[C@]32OO4 (stereo partly drawn) [hybrid 7o, (3R,5aS,6R,8aS,9R,12R,12aR)-3,6,9-trimethyldecahydro-12H-3,12-epoxy[1,2]dioxepino[4,3-i]isochromen-10-yl 4-(3-[(benzyloxy)imino)-2-oxoindolin-1-yl]butanoate] | > 100 µM | > 100 µM | > 100 µM | – | –

More lines, main results first:

Row | IC50 [1] | IC50 [2] | IC50 [3] | Structure (SMILES) | IC50 [4] | SI, Selectivity index, IC50(PBMCs)/IC50(CCRF-CEM) [5]
12 | > 100 µM | > 100 µM | > 100 µM | C[C@@H]1CC[C@H]2[C@@H](C)C(=O)O[C@@H]3O[C@@]4(C)CC[C@@H]1[C@]32OO4 [ART, Artemisinin] | – | –
13 | 15.2 µM | 3.78 µM | 22.7 µM | CON=C1C(=O)N(CCC(=O)OC2O[C@@H]3O[C@@]4(C)CC[C@H]5[C@H](C)CC[C@@H]([C@H]2C)[C@@]35OO4)c2ccccc21 (stereo partly drawn) [hybrid 7e, (3R,5aS,6R,8aS,9R,12R,12aR)-3,6,9-trimethyldecahydro-12H-3,12-epoxy[1,2]dioxepino[4,3-i]isochromen-10-yl 3-(3-(methoxyimino)-2-oxoindolin-1-yl)propanoate] | > 100 µM | >6.59
14 | 9.16 µM | 5.7 µM | > 100 µM | CCON=C1C(=O)N(CCC(=O)OC2O[C@@H]3O[C@@]4(C)CC[C@H]5[C@H](C)CC[C@@H]([C@H]2C)[C@@]35OO4)c2ccccc21 (stereo partly drawn) [hybrid 7f, (3R,5aS,6R,8aS,9R,12R,12aR)-3,6,9-trimethyldecahydro-12H-3,12-epoxy[1,2]dioxepino[4,3-i]isochromen-10-yl 3-(3-(ethoxyimino)-2-oxoindolin-1-yl)propanoate] | > 100 µM | >10.91
15 | 1.31 µM | > 100 µM | 16.2 µM | CON=C1C(=O)N(CCC(=O)OC2O[C@@H]3O[C@@]4(C)CC[C@H]5[C@H](C)CC[C@@H]([C@H]2C)[C@@]35OO4)c2ccc(F)cc21 (stereo partly drawn) [hybrid 7h, (3R,5aS,6R,8aS,9R,12R,12aR)-3,6,9-trimethyldecahydro-12H-3,12-epoxy[1,2]dioxepino[4,3-i]isochromen-10-yl 3-(5-fluoro-3-(methoxyimino)-2-oxoindolin-1-yl)propanoate] | > 100 µM | >76.33
16 | > 100 µM | > 100 µM | 3.83 µM | C[C@@H]1CC[C@H]2[C@@H](C)C(OC(=O)CCN3C(=O)C(=NOCc4ccccc4)c4cc(F)ccc43)O[C@@H]3O[C@@]4(C)CC[C@@H]1[C@]32OO4 (stereo partly drawn) [hybrid 7j, (3R,5aS,6R,8aS,9R,12R,12aR)-3,6,9-trimethyldecahydro-12H-3,12-epoxy[1,2]dioxepino[4,3-i]isochromen-10-yl 3-(3-[(benzyloxy)imino)-5-fluoro-2-oxoindolin-1-yl]propanoate] | – | –
17 | > 100 µM | > 100 µM | > 100 µM | CCON=C1C(=O)N(CCCC(=O)OC2O[C@@H]3O[C@@]4(C)CC[C@H]5[C@H](C)CC[C@@H]([C@H]2C)[C@@]35OO4)c2ccccc21 (stereo partly drawn) [hybrid 7n, (3R,5aS,6R,8aS,9R,12R,12aR)-3,6,9-trimethyldecahydro-12H-3,12-epoxy[1,2]dioxepino[4,3-i]isochromen-10-yl 4-(3-(ethoxyimino)-2-oxoindolin-1-yl)butanoate] | – | –
18 | 18.6 µM | 49.8 µM | > 100 µM | CON=C1C(=O)N(CCCC(=O)OC2O[C@@H]3O[C@@]4(C)CC[C@H]5[C@H](C)CC[C@@H]([C@H]2C)[C@@]35OO4)c2ccc(F)cc21 (stereo partly drawn) [hybrid 7p, (3R,5aS,6R,8aS,9R,12R,12aR)-3,6,9-trimethyldecahydro-12H-3,12-epoxy[1,2]dioxepino[4,3-i]isochromen-10-yl 4-(3-(methoxyimino)-5-fluoro-2-oxoindolin-1-yl)butanoate] | > 100 µM | >5.36
